Measured values from patent US10689331B2, “IDO inhibitors” (Bristol-Myers Squibb Company, priority 2015, dated 2020).

Target: T1, human IDO1 (Homo sapiens, UniProt P14902)
T1 construct: expressed in transfected cells
Experiment: HEK Human IDO-1 inhibition assay (kynurenine readout, Ehrlich reagent, absorbance 490 nm)
Type: cell-based
Details: human IDO1/HEK293 cells, incubated 20 hours with compound; 500 nM reference standard = 100% inhibition
Procedure, shortened: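 HEK293 cells stably expressing human IDO1, treated with compound for 20 h at 37 °C in phenol red-free RPMI/10% FBS. Kynurenine detected after TCA (0.2% final, 50 °C, 30 min) by Ehrlich reagent absorbance at 490 nm; IC50 normalised to 500 nM reference standard (100%) and DMSO (0%).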

T1 sequence (P14902 whole entry): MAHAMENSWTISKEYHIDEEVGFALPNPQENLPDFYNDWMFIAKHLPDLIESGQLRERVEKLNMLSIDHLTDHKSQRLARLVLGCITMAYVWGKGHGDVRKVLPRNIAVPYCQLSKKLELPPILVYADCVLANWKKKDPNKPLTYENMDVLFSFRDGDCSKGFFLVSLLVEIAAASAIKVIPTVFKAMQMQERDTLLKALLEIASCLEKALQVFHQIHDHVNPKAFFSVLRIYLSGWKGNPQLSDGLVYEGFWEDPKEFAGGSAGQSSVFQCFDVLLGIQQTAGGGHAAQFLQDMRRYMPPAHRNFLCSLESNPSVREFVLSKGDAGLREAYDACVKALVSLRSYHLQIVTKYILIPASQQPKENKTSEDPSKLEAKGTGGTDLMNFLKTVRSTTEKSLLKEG

Row | Compound | IC50
1 | Cc1ccc(CC(=O)Nc2cc(OC(C)C(=O)O)ccc2N(CC(C)C)C2CCCCC2)c(F)c1 (racemic) [Example 76, 2-(4-(cyclohexyl(isobutyl)amino)-3-(2-(2-fluoro-4-methylphenyl)acetamido)phenoxy)propanoic acid] | < 100 nM
2 | CC(C)CN(c1ccc(OCC(=O)O)cc1NC(=O)N(C)c1ccc(F)cc1)C1CCCCC1 [Example 41, 2-(4-(cyclohexyl(isobutyl)amino)-3-(3-(4-fluorophenyl)-3-methyl-ureido)phenoxy)acetic acid] | ≥ 100 nM
3 | CC(C)CN(c1ccc(OCC(=O)O)cc1NC(=O)Nc1cccc(C(F)(F)F)c1F)C1CCCCC1 [Example 27, 2-(4-(cylclohexyl(isobutyl)amino)-3-(3-(2-fluoro-3-(trifluoromethyl)phenyl)ureido)phenoxy)acetic acid] | ≥ 100 nM
4 | CCOC(=O)C(C)Oc1ccc(N(CC(C)C)C2CCCCC2)c(NC(=O)Nc2ccc(Cl)cc2F)c1 (single isomer, unassigned) [Example 67-1, ethyl 2-(3-(3-(4-chloro-2-fluorophenyl)ureido)-4-(cyclohexyl(isobutyl)amino)phenoxy)propanoate] | < 100 nM
5 | CC(C)CN(c1ccc(OC(C)C(=O)O)cc1NC(=O)Cc1ccc(Cl)c(F)c1)C1CCCCC1 (racemic) [Example 72, 2-(3-(2-(4-chloro-3-fluorophenyl)acetamido)-4-(cyclohexyl (isobutyl)amino)phenoxy)prop-anoic acid] | < 100 nM
6 | COc1ccc(NC(=O)Nc2cc(OC(C)C(=O)O)ccc2N(CC(C)C)C2CCCCC2)c(F)c1 (single isomer, unassigned) [Example 64-1, 2-(4-(cyclohexyl(isobutyl)amino)-3-(3-(2-fluoro-4-methoxyphenyl)ureido)phenoxy)propanoic acid] | < 100 nM
7 | Cc1ccc(NC(=O)Nc2cc(OC(C)C(=O)NS(=O)(=O)C3CC3)ccc2N(CC(C)C)C2CCCCC2)cc1 (racemic) [Example 69, (±)-2-(4-(cyclohexyl(isobutyl)amino)-3-(3-(p-tolyl)ureido)phenoxy)-N-(cyclopropylsulfonyl)propanamide] | < 5 nM
8 | CC(C)CN(c1ccc(OCC(=O)O)cc1NC(=O)Nc1ccc(F)cc1)C1CCCCC1 [Example 17, 2-(4-(cyclohexyl(isobutyl)amino)-3-(3-(4-fluorophenyl)ureido)phenoxy)acetic acid] | < 100 nM
9 | CC(C)CN(c1ccc(OCC(=O)O)cc1NC(=O)Nc1ccon1)C1CCCCC1 [Example 10, 2-(4-(cyclohexyl(isobutyl)amino)-3-(3-(isoxazol-3-yl)ureido)phenoxy)acetic acid] | ≥ 100 nM
10 | COc1ccc(NC(=O)Nc2cc(OCC(=O)O)ccc2N(CC(C)C)C2CCCCC2)c(F)c1 [Example 25, 2-(4-(cyclohexyl(isobutyl)amino)-3-(3-(2-fluoro-4-methoxyphenyl)ureido)phenoxy)acetic acid] | < 5 nM
11 | CC(C)CN(c1ccc(OCC(=O)NS(=O)(=O)N(C)C)cc1NC(=O)Nc1ccccc1F)C1CCCCC1 [Example 51, 2-(4-(cyclohexyl(isobutyl)amino)-3-(3-(2-fluoro-phenyl)ureido)phenoxy)-N—(N,N-dimethylsulfamoyl)acetamide] | < 5 nM
12 | CC(C)CN(c1ccc(OC(C)C(=O)O)cc1NC(=O)Cc1ccc(F)cc1)C1CCCCC1 (racemic) [Example 74, 2-(4-(cyclohexyl(isobutyl)amino)-3-(2-(4-fluorophenyl)acet-amido)phenoxy)propanoic acid] | ≥ 100 nM
13 | CC(C)CN(c1ccc(OCC(=O)O)cc1NC(=O)Nc1ccccc1F)C1CCCCC1 [Example 18, 2-(4-(cyclohexyl(isobutyl)amino)-3-(3-(2-fluorophenyl)ureido)phenoxy)acetic acid] | < 5 nM
14 | CC(C)CN(c1ccc(OCC(=O)O)cc1NC(=O)Nc1cncnc1)C1CCCCC1 [Example 2, 2-(4-(cyclohexyl(isobutyl)amino)-3-(3-(pyrimidin-5-yl)ureido)phenoxy)acetic acid] | ≥ 100 nM

The remaining lines, values ahead:

Row | IC50 | Compound
15 | < 100 nM | C=C(C)CN(CCCC(F)(F)F)c1cc(F)c(OCC(=O)O)cc1NC(=O)Nc1cc(C)no1 [Example 121, 2-(2-fluoro-4-((2-methylallyl)(4,4,4-trifluorobutyl)amino)-5-(3-(3-methylisoxazol-5-yl)ureido)phenoxy)acetic acid]
16 | < 100 nM | CC(C)CN(c1c(C#N)cc(OCC(=O)O)cc1NC(=O)Nc1ccc(Cl)cc1F)C1CCCCC1 [Example 108, 2-(3-(3-(4-chloro-2-fluorophenyl)ureido)-5-cyano-4-(cyclohexyl(isobutyl)amino)phenoxy)acetic acid]
17 | < 5 nM | CCC(Oc1ccc(N(CC(C)C)C2CCOCC2)c(NC(=O)Nc2ccc(Cl)cc2F)c1)C(=O)O (single isomer, unassigned) [Example 143-2, 2-(3-(3-(4-chloro-2-fluorophenyl)ureido)-4-(isobutyl(tetrahydro-2H-pyran-4-yl)amino)phenoxy)butanoic acid]
18 | ≥ 100 nM | CC(C)CN(c1ccc(OC(C)C(=O)O)cc1NC(=O)Nc1ccc(Cl)cc1F)C1CCOC1 (single isomer, unassigned) [Example 146-1, 2-(3-(3-(4-chloro-2-fluorophenyl)ureido)-4-(isobutyl(tetrahydrofuran-3-yl)amino)phenoxy)propanoic acid]
19 | < 100 nM | Cc1ccc(NC(=O)Nc2cc(OC(C(=O)O)C(C)C)ccc2N(CC(C)C)C2CCCCC2)cc1 (racemic) [Example 84, (±)-2-(4-(cyclohexyl(isobutyl)amino)-3-(3-(p-tolyl)ureido)phenoxy)-3-methylbutanoic acid]
20 | ≥ 100 nM | CC(C)CN(c1ccc(OCC(=O)O)cc1NC(=O)Nc1ccc(Cl)cc1F)C1CCC(O)CC1 (centres unmarked) [Example 149, 2-(3-(3-(4-chloro-2-fluorophenyl)ureido)-4-((0-4-hydroxycyclohexyl)(isobutyl)amino)phenoxy)acetic acid]
21 | < 5 nM | COc1ccc(NC(=O)Nc2cc(OC(C)C(=O)O)ccc2N(CC(C)C)C2CCCCC2)c(F)c1 (racemic) [racemic 64]
22 | ≥ 100 nM | CC(C)CN(c1cc(F)c(OCC(=O)O)cc1NC(=O)Nc1ccc(C#N)nc1)C1CCCCC1 [Example 128, 2-(5-(3-(6-cyanopyridin-3-yl)ureido)-4-(cyclohexyl(isobutyl)amino)-2-fluorophenoxy)acetic acid]
23 | < 5 nM | CCCC(Oc1ccc(N(CC(C)C)C2CCCCC2)c(NC(=O)Nc2ccccc2F)c1)C(=O)O (single isomer, unassigned) [Example 87-1, 2-(4-(cyclohexyl(isobutyl)amino)-3-(3-(2-fluorophenyl)ureido)phenoxy)pentanoic acid]
24 | < 5 nM | CCCC(Oc1ccc(N(CC(C)C)C2CCCCC2)c(NC(=O)Nc2ccc(Cl)cc2F)c1)C(=O)O (single isomer, unassigned) [Example 85-1, 2-(3-(3-(4-chloro-2-fluorophenyl)ureido)-4-(cyclohexyl(isobutyl)amino)phenoxy)pentanoic acid]
25 | < 5 nM | CCCC(Oc1ccc(N(CC(C)C)C2CCCCC2)c(NC(=O)Nc2ccc(Cl)cc2F)c1)C(=O)O (single isomer, unassigned) [Example 85-2, 2-(3-(3-(4-chloro-2-fluorophenyl)ureido)-4-(cyclohexyl(isobutyl)amino)phenoxy)pentanoic acid]
26 | < 5 nM | CC(C)CN(c1ccc(OCc2nnn[nH]2)cc1NC(=O)Nc1ccc(Cl)cc1F)C1CCCCC1 [Example 96, 1-(5-((1H-tetrazol-5-yl)methoxy)-2-(cyclohexyl(isobutyl)amino)phenyl)-3-(4-chloro-2-fluorophenyl)urea]
27 | ≥ 100 nM | CCCN(Cc1ccccc1)c1ccc(OCC(=O)O)cc1NC(=O)Nc1ccc(C)cc1 [Example 159, 2-(4-(benzyl(propyl)amino)-3-(3-(p-tolyl)ureido)phenoxy)acetic acid]
28 | < 100 nM | O=C(O)COc1ccc(N(CC2CC2)C2CCCCC2)c(NC(=O)Nc2ccc(Cl)cc2F)c1 [Example 118, 2-(3-(3-(4-chloro-2-fluorophenyl)ureido)-4-(cyclohexyl(cyclopropylmethyl)amino)phenoxy)acetic acid]
29 | ≥ 100 nM | C=C(C)CN(c1ccc(OCC(=O)O)cc1NC(=O)Nc1ccc(Cl)cc1F)C1COC1 [Example 141, 2-(3-(3-(4-chloro-2-fluorophenyl)ureido)-4-((2-methylallyl)(oxetan-3-yl)amino)phenoxy)acetic acid]
